Three molecules from patent publication US10028914B2, “Reduction type coenzyme Q10 powder, composition thereof, and preparation method thereof” (Zhejiang Medicine Co., Ltd. Xinchang Pharmaceutical Factory, priority 2013, dated 2018) can be followed below.

Like-named read-outs stand apart in the source and are kept apart here.

The term Cmax denotes the maximum level reached in the sampled fluid or tissue. For orientation: MRT means the average time that molecules of a dose stay in the body. The term Tmax denotes the time from dosing to the highest level. By bioavailability is commonly meant the share of a dose that reaches the circulation, judged against a reference dose that is usually intravenous. Read a low bioavailability as little systemic uptake. One may read the AUC(0-inf) as the area under the concentration-time curve extrapolated to infinity. Read a low AUC(0-inf) as less exposure. By half-life is commonly meant the time needed for the level to fall by half in the phase considered. High values mean slow loss, low ones fast loss.

Data set [1] can be described thus: Stability experiment: retention rate of reduced coenzyme Q10 on storage. Format: physicochemical. To be noted: stored under shading or nitrogen at 18° C. On the procedure:
Determining the proportion of reduced coenzyme Q10 in reduced coenzyme Q10 powder or crystals by the HPLC method. Determination conditions are as follows:
Instruments: Agilient 1210
Mobile phase: ethanol/methanol=4/3(V/V)
Detection wavelength: 210 nm
Sample 1 and Sample 2 and Sample 3 obtained by Example 1, Example 2, Example 3 are respectively stored under shading or nitrogen for two months at 18° C. The retention rate of reduced coenzyme Q10 is respectively determined within 1 month and 2 months.

Data set [2] in a line: Beagle feeding experiment: pharmacokinetic parameters and relative bioavailability. The data set is classed as in vivo. To be noted: gastric gavage 20 mg/kg, average. On the procedure:
Sample 1 and Sample 2 and Sample 3 obtained by Example 1, Example 2, Example 3 are used for beagle feeding experiment respectively, and the reduced coenzyme Q10 concentration in blood of feed beagle is determined, a basic pharmacokinetic parameters and relative bioavailability is calculated.
4 beagles, half male and half female, 9-12 kg weight, provided by Shanghai Institute of Medicine Center for experimental animals, laboratory animals use license: SYXK (Shanghai), 2010-0049. A cross double cycle test is made. Gastric gavage is respectively for Sample 1, 2, 3, to fill stomach in a dose of 20 mg/kg, a delivery volume of 2 ml/kg. Samples with a suspension of soybean oil mixture for medicine (filling water 20 ml after feeding), normally feeding and drinking before testing, feeding feed containing meat on morning of the same day of feeding the medicine, to fill the stomach after 30 min. Two cycle tests are interval for a week.
Calculate the Pharmacokinetic Parameters of Compounds by WinNonlin 5.3 Software.
Peak-reaching time Tmax and peak-reaching concentration Cmax use measured values. Drug concentration area under time curve AUC0-t value is calculated by the trapezoidal method, AUC0-∞ is calculated by the formula AUC0-∞=AUC0-t+Ct/ke. Ct is a concentration measured by the last time point, ke is an eliminate rate constant, with half logarithmic mapping method, calculation by eliminating the concentration of the phase; Plasma elimination half-life t1/2=0.693/ke. Relative bioavailability F=(AUC0-t, Sample 2 or 3/AUC0-t, Sample 1)×100%. The main pharmacokinetic parameters after Beagle lavage for 20 mg/kg sample.

[3] abbreviates: both sexes, dog, blood, po, 20 mg/kg, suspension in soybean oil.

For the molecule `COc1c(O)c(C)c(C/C=C(\C)CC/C=C(\C)CC/C=C(\C)CC/C=C(\C)CC/C=C(\C)CC/C=C(\C)CC/C=C(\C)CC/C=C(\C)CC/C=C(\C)CCC=C(C)C)c(O)c1OC` [Sample 2, reduced coenzyme Q10], in data set [1], the “The retention rate of reduced coenzyme Q10 within 1 month” value is 75.4% and the “The retention rate of reduced coenzyme Q10 within 2 months” value is listed as 66.3%. The “The retention rate of reduced coenzyme Q10 within 2 months” value in data set [1] (listed as Samples 2) was determined as 66.3%. In data set [2] (suspension in soybean oil), the AUC0-t turned out to be 2359 ng·h/mL, the “AUC0-∞” value was determined as 2405 ng·h/mL, the Cmax was 261 ng/mL and the MRT was 7.77 h. In data set [2] (suspension in soybean oil), the Tmax is recorded as 4.5 h and the t1/2 amounted to 3.94 h.
`COc1c(O)c(C)c(C/C=C(\C)CC/C=C(\C)CC/C=C(\C)CC/C=C(\C)CC/C=C(\C)CC/C=C(\C)CC/C=C(\C)CC/C=C(\C)CC/C=C(\C)CCC=C(C)C)c(O)c1OC` [Sample 1, reduced coenzyme Q10]: in data set [1], the “The retention rate of reduced coenzyme Q10 within 1 month” value came to 98.4% and the “The retention rate of reduced coenzyme Q10 within 2 months” value is recorded as 95.5%. Moreover, in data set [1] (listed as reduced coenzyme Q10 powder obtained by the method), the “The retention rate of reduced coenzyme Q10 within 2 months” value was 95.5%. Besides, in data set [2] (suspension in soybean oil), the AUC0-t amounted to 3640 ng·h/mL, the “AUC0-∞” value is 2865 ng·h/mL, the Cmax amounted to 303 ng/mL and the MRT was 10.9 h. In addition, in data set [2] (suspension in soybean oil), the Tmax came to 7.5 h and the t1/2 was found to be 6.11 h.
As to `COc1c(O)c(C)c(C/C=C(\C)CC/C=C(\C)CC/C=C(\C)CC/C=C(\C)CC/C=C(\C)CC/C=C(\C)CC/C=C(\C)CC/C=C(\C)CC/C=C(\C)CCC=C(C)C)c(O)c1OC` [Sample 3, reduced coenzyme Q10], in data set [1], the “The retention rate of reduced coenzyme Q10 within 1 month” value is recorded as 89.3% and the “The retention rate of reduced coenzyme Q10 within 2 months” value was found to be 85.4%. The bioavailability in data set [2] (both sexes, dog, blood, po, 20 mg/kg, F=(AUC0-t, Sample 2 or 3/AUC0-t, Sample 1)×100%) stood at 74.7%. Moreover, in data set [2] (setting [3]), the AUC(0-inf) was determined as 2660 ng·h/mL and the half-life was 4.76 h. For the same molecule, the AUC0-t in data set [2] (both sexes, dog, blood, po, 20 mg/kg, suspension in soybean oil, read-out: AUC0-t) was determined as 2760 ng·h/mL. In data set [2] (both sexes, dog, blood, po, 20 mg/kg, suspension in soybean oil, read-out: Cmax), the Cmax came out at 287 ng/mL. Moreover, the MRT in data set [2] (both sexes, dog, blood, po, 20 mg/kg, suspension in soybean oil, read-out: MRT) amounted to 8.35 h. For the same molecule, in data set [2] (both sexes, dog, blood, po, 20 mg/kg, suspension in soybean oil, read-out: Tmax), the Tmax stood at 6.3 h.
